From US20180009764A1, “METHOD FOR TREATING MACROPHAGE MIGRATION INHIBITORY FACTOR (MIF)-IMPLICATED DISEASES AND CONDITIONS WITH IODO PYRIMIDINE DERIVATIVES” (UNIVERSITY OF LOUISVILLE RESEARCH FOUNDATION, INC., priority 2009, published 2018)
In brackets after ≈: the same amount, converted by molar mass.

What was measured:
MIF [1] = biological target: T1, MIF (Homo sapiens, UniProt P14174); assay: MIF cell lysate enzymatic inhibition; format: biochemical; settings: cell lysates
T1 construct: the enzymatic activity of MIF present in cell lysates; endogenous in cells
T1 sequence (P14174 2-115 limits assumed): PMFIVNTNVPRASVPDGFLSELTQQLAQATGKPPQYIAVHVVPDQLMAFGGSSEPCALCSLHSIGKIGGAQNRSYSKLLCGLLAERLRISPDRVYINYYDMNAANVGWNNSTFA
Method: Normal or transformed cell lysates can be used to determine the concentration inhibiting the enzymatic activity of MIF present in cell lysates. Cells are cultured in the appropriate media to the required number of cells, collected, and lysed. Compounds to be characterized are solubilized in DMSO and serial dilutions are performed in order to obtain a range of concentrations including complete and no quantifiable inhibition.

[2] = tested on: primary human T lymphocytes; assay: Anti-CD3 induced T lymphocyte activation/proliferation (flow cytometry); format: cell-based; settings: 25 μM
Method: In order to assess the ability of MIF antagonists to disrupt autoimmune-associated T cell activation, primary human T lymphocytes were prepared using standard Ficoll-gradient preparations. 1×10^6 lymphocytes/ml were resuspended in RPMI/10% FCS and plated onto anti-CD3 antibodies previously immobilized onto tissue culture plates. Control, vehicle control (0.1% DMSO), 25 μM 4-IPP or 25 μM ACT-003 were added to cells and allowed to incubate for 48 hours. Cells were lifted, washed and stained with anti-CD4 or anti-CD8 antibodies and then analyzed by flow cytometry.
To validate the effects of MIF antagonists on T lymphocyte activation, experiments were set up exactly as described above and, 48 hours later, treated and untreated lymphocytes were stained with an anti-CD25 antibody. CD25 is also known as the high affinity IL-2 receptor—a very well characterized and frequently marker of T lymphocyte activation.
In order to investigate the relative kinetics of when 4-IPP and ACT-003 are acting in blocking T lymphocyte activation, we repeated the experiment described above but harvested lymphocytes only 16 hours after anti-CD3 plating. At this early time point during T lymphocyte activation, CD69 is found to be expressed and is usually considered to be an “early marker” of lymphocyte activation.
Finally, to confirm that proliferation of CD4+ and CD8+ T lymphocytes is blocked by 4-IPP-based MIF antagonists, we repeated the experiment as described above, added labeled-BrdU to cells, stained with either labeled anti-CD4 or anti-CD8 antibodies and then assessed relative CD4/CD8 and BrdU labeling in each treatment group.

MIF [3] = biological target: T2, MIF (Mus musculus, UniProt P34884); assay: MIF liver lysates enzymatic activity ex vivo (L-dopachrome tautomerase); settings: mice; IP 1 mg in corn oil every day for 3 days; livers 6 hours after last injection; FIG. 1
T2 construct: from tissue; host or cells: mouse liver (A7); liver, lung and brain of C57BL6 mice (A20)
Method: This experiment, using an ex-vivo approach and the tautomeric reaction of L-dopachrom, was designed to ascertain the level of inhibition of MIF following administration of the compounds of this invention via oral, IV, IP or any other route of administration. Mice were used in the example illustrated below, but other animals could be used as well. Groups of 3 mice were administered IP 1 mg of 4-IPP and ACT-002 resuspended in 100 μl of corn oil every day for 3 days. Mice were sacrificed 6 hours after the last injection and livers were harvested. ˜1 gram pieces of liver were lysed in PBS containing 1 mM NaVO4, 2 mM NaF and a protease inhibitor cocktail (Roche Biochemical, Indianapolis, Ind.) using dounce-homogenization on ice. 500 μg of liver lysates were added to a final volume of 700 μl PBS in plastic cuvettes. 4 mM L-3, 4-dihydroxyphenylalanine methyl ester and 8 mM sodium periodate (Sigma-Aldrich) were combined in a 3:2 ratio to form L-dopachrome methyl ester. 300 μL of L-dopachrome methyl ester was then immediately added to the cuvettes; the OD475 nm was measured 2 min and 4 min after addition of the L-dopachrome.

Du 145 = assay: Inhibition of tumor cells proliferation (CellTiter Glo); format: cell-based; settings: Homo sapiens, 72 hours
Method: Inhibition of the proliferation of tumor cells was investigated in vitro in several tumor cell lines. Cells of the desired tumor cell line were plated at 2×10^5 cells/ml in 96 well plates. Twice the indicated concentrations of the compounds of the invention were added to cells the following day in an equal volume of media. 72 hours later, cells were lysed and subjected to ATP determination using the CellTiter Glo-Luminescent Cell Viability Assay kit (Promega, Madison, Wis.). Experiments were done in triplicate. Results for the inhibition of cells proliferation are reported as IC50 (the concentration leading to a 50% inhibition of proliferation of the cell population) and are listed in Table 6. FIGS. 3 and 4 show bar graphs comparing the IC50s of specific embodiments of compounds of the invention across multiple tumor cell lines.

LOX-IMV1 tumor cell line = assay: Inhibition of cell migration (Oris Cell Migration Assay); format: cell-based; settings: 72 hrs, even at low concentrations (0.03 μM), FIG. 7
Method: The LOX-IMV1 tumor cell line was used to determine the inhibition of cell migration using the Oris Cell Migration Assay kit (Promega, Mich.). Briefly, adherent cells were seeded into each well of the kit according to kit instructions. Concentrations of cells in the migration zone were determined to calculate IC50 values. Prior to the migration assay, cell proliferation IC50s were determined to differentiate between inhibition of proliferation and migration. […] A slightly modified method was also used to determine the inhibition of invasion.

[4] = Solubility in varying solvents; format: physicochemical; settings: 21 °C, 20-22° C.
MIF [5] = biological target: T2, MIF; assay: Oral bioavailability: ex vivo MIF enzymatic activity in liver, brain and lung after IP and PO dosing; parameters: species or system C57BL6 mice
Method: The compounds were administered orally (PO) and intraperitoneally (IP) to healthy animals. The inhibition of the MIF liver enzymatic activity determined ex vivo following IP and PO dosing is similar, indicating high oral bioavailability. Furthermore, brain and lung tissues were collected and processed to determine MIF enzymatic activity in these organs. […] Inhibition of MIF enzyme was determined […] following dosing of MIF-002 at 40 mg/kg once a day for three days, both IP and PO (normal C57BL6 mice, n=3). Tissues were collected at sacrifice and processed. Liver, lung, and brain tissues were collected, processed, and used for the determination of MIF enzyme activity. Values are expressed as a percentage calculated using DMSO as control (no inhibition).
Two additional compounds were tested, MIF-035 and MIF-041.

[6] = Microsomal stability in human liver microsomes; format: in vitro ADME
Method: Stability in human liver microsomes was tested over […] at 37° C. using pooled mixed gender human liver microsomes. Liver microsomes were prepared at 1.0 mg/ml of microsomal protein in a 100 mM potassium phosphate pH 7.4 buffer with 1 mM NADPH. The media was incubated at 37° C. with the compound in solution in DMSO. The concentration of the compound was followed by LC/MS-MS as a function of time. Samples were assayed at t=0, 30, 60 and 120 minutes. Testosterone was used as a positive control. The same experiment was performed with mouse liver microsomes instead of human liver microsomes.

[7] = tested on: Chick Chorioallantoic Membrane (CAM); assay: CAM assay with matrigel plugs; format: in vivo
Method: 8 groups with 10 embryos in each group were used in the experiment described below. Fresh fertile eggs were incubated for 3 days in a standard egg incubator at 37° C. for 3 days. On Day 3, eggs were cracked under sterile conditions and embryos were placed into 20×100 mm plastic plates and cultivated at 37° C. in an embryo incubator with a water reservoir on the bottom shelf. Air was continuously bubbled into the water reservoir using a small pump so that the humidity in the incubator is kept constant. On Day 6, a sterile silicon “o” ring was placed on each CAM and test compound dissolved in 0.5% methylcellulose was placed into each “o” ring in a sterile hood. Paclitaxel was used as a positive control. Embryos were returned to the incubator after addition of test material. Control embryos received 10 μL of vehicle alone. On Day 8, embryos were removed from the incubator and kept at room temperature while blood vessel density were determined under each “o” ring using an image capturing system at a magnification of 160×. The blood vessel density was measured using an angiogenesis scoring system in that arithmetic numbers 0 to 5 (or exponential numbers 1 to 32) are used to indicate number of blood vessels present at the treatment sites on the CAM. Number 5 represents the highest density and 0 represents no angiogenesis. The percent of inhibition at each dosing site was calculated using the score recorded for that site divided by the mean score obtained from the appropriate control samples for each individual experiment. The percent of inhibition for each dose of a given compound was calculated by pooling all results obtained for that dose from 8-10 embryos.
Another experiment was performed using a protocol similar to the one described above but using matrigel plugs instead of o ring to deliver the test material to the CAM. Results are summarized in Table 9 below and show a statistically significant inhibition of angiogenesis at the high concentrations of test material.

p53 = p53 up regulation, p53 luciferase assay; format: cell-based; settings: 10 μM; FIG. 5
Method: The up regulation of p53 was determined using a commercially available p53 luciferase assay kit. 1×10^5 cells/ml were plated in a 24 well plate and allowed to adhere overnight. MIF antagonists were added to the cells at the indicated concentrations for 16 hours and transiently co-transfected with 0.125 μg/well of p53-responsive luciferase promoter plasmid (Promega, Madison, Wis.) together with 0.0125 μg/well Renilla pRL-null plasmid (Promega) using Lipofectamine (Invitrogen) transfection reagent. After 24 hrs, Firefly and Renilla luciferase activities were measured by the Dual Luciferase Reporter Assay System (Promega, Madison, Wis.) on a TD-20/20 luminometer (Turner Designs).

[8] = Caco-2 cell permeability and transport; format: in vitro ADME; parameters: Caco-2 Permeability Papp B-A / Caco-2 Permeability Papp A-B: unit not given here; settings: human, Caco-2, pH 7.4
Method: (§1) Cell permeability and transport mechanisms in Caco-2 and MDR1-MDCK monolayers experiments were performed in triplicate in the apical-to-basolateral and basolateral-to-apical direction using […]® wells containing either Caco-2 or MDR1-MDCK monolayers. A modified Hanks buffer pH 7.4 was used in both reservoir and receiver wells with the addition of 1% BSA in the receiver side. Confluent monolayers were used and their integrity was verified using reference compounds (Atenolol as a low permeability reference compound and Propanolol as a high permeability reference compound). A sample in the basolateral and apical sides was taken after 2 hours and the concentration measured by LC/MS-MS.

Caco-2 monolayers = assay: Caco-2 cell permeability and transport; format: in vitro ADME; parameters: Caco-2 Permeability Papp B-A / Caco-2 Permeability Papp A-B: unit not given here
Method: as §1

[9] = Microsomal stability in human liver microsomes; format: in vitro ADME; settings: 15 min; 37° C.; 1 mM NADPH

Ic1cc(-c2ccccc2)ncn1 [4-IPP, 4-iodo-6-phenylpyrimidine, reference compound]
IC50 (MIF [1]): > 2000 nM
CD69 expression ([2]; 16 hours, FIGS. 17 and 18): only a marginal effect on CD69 expression
CD4 and CD8 T lymphocytes after anti-CD3 activation ([2]; 48 hours, FIGS. 13 and 14): significantly fewer CD4 and CD8 T lymphocytes
Anti-CD3-induced CD25 expression ([2]; 48 hours, FIGS. 15 and 16): almost completely blocked the anti-CD3-induced CD25 expression
BrdU labeling of CD8+ and CD4+ T lymphocytes (proliferation) ([2]; 48 hours, FIGS. 19 and 20): almost completely blocked BrdU labeling in both CD8+ and CD4+ T lymphocytes
MIF liver enzyme inhibition (MIF [3]): significant in vivo inhibition of MIF

NC(=O)c1cccc(-c2cc(I)ncn2)c1 [ACT-MIF-035, 4-Iodo-6-(3-aminocarbonylphenyl)pyrimidine]
IC50 (MIF [1]): 185 nM
IC50 (Du 145): 21700 nM
Inhibition of cell migration (LOX-IMV1 tumor cell line): significant inhibition of migration
solubility ([4]; aqueous with cosolvent or surfactant or cyclodextrin, Ethanol/Tween 80): 10000 µg/mL (≈ 30.8 mM)
solubility ([4]; oil or lipid, Corn oil): < 6000 µg/mL
solubility ([4]; organic solvent or mixture, Ethanol): 1400 µg/mL (≈ 4.31 mM)
solubility ([4]; organic solvent or mixture, PEG-300): 13300 µg/mL (≈ 40.9 mM)
solubility ([4]; organic solvent or mixture, Propane-diol): 2700 µg/mL (≈ 8.3 mM)
Oral bioavailability (MIF [5]; judged from ex vivo MIF inhibition after IP and PO dosing): orally bioavailable
Crossing of the blood brain barrier (MIF [5]; judged from ex vivo MIF inhibition in brain): crossed the blood brain barrier
Metabolic Stability in Human Microsomes % Remaining ([6]; both, human, microsomes, 0 h, pH 7.4): 100%
Metabolic Stability in Human Microsomes % Remaining ([6]; both, human, microsomes, 1 h, pH 7.4): 92%
Blood Vessel Counts ([7]; 0.3 nM per CAM): 28.3 ± 1.7
Blood Vessel Counts ([7]; 3 nM per CAM): 27.3 ± 2.4
Blood Vessel Counts ([7]; 30 nM per CAM): 26.7 ± 1.9
p53 regulation (p53): implicated in p53 regulation
efflux ratio at 2 h [8]: 1.1
Caco-2 Permeability Class (Caco-2 monolayers): High
Caco-2 Permeability Papp A-B (Caco-2 monolayers; apical-to-basolateral, pH 7.4, 2 hours): 3.1
Caco-2 Permeability Papp B-A (Caco-2 monolayers; basolateral-to-apical, pH 7.4, 2 hours): 3.3

C[C@]12CC[C@H]3[C@@H](CCC4=CC(=O)CC[C@@]43C)[C@@H]1CC[C@@H]2O [Testosterone, reference compound]
Metabolic Stability in Human Microsomes % Remaining [9]: 56%
Metabolic Stability in Human Microsomes % Remaining ([6]; 0 min, 37° C., 1 mM NADPH): 100%
